Our source for the GI50 and TGI values is PubChem BioAssay (NCI).

Holding throughout (assay): NCI anticancer screen, dose series, 48 h
Assay [1] deals with A498 renal.
Assay [2] relates to ACHN renal.
Assay [3] deals with COLO 205 colon.
In assay [4] the test system is DU-145 prostate.
Assay [5] deals with HT29 colon.
Assay [6] has as its system IGROV1 ovarian.
Assay [7] relates to M14 melanoma.
Assay [8] deals with OVCAR-3 ovarian.
The test system of assay [9] is OVCAR-5 ovarian.
For assay [10], the system named is SN12C renal.

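A five-concentration, 48-hour dose response in 96-well plates underlies each endpoint, interpolated linearly between surrounding concentrations. GI50 is the concentration that inhibits growth by half. The concentration for full growth arrest is given as TGI.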

For the compound `CC[C@H](C)[C@H](NC(=O)c1cccn1C)C(=O)N(C)[C@H](C[C@@H](OC(C)=O)c1nc(C(=O)N[C@@H](Cc2ccccc2)C[C@H](C)C(=O)OC)cs1)C(C)C`, the GI50 in assay [1] was 0.0722 µM; in [2] it was 0.502 µM; in assay [3], 0.15 µM; in [4], 0.348 µM; in assay [5] it was 0.205 µM; in [6], 0.228 µM. The GI50 in [7] was 0.131 µM; in [8], 0.0809 µM; in assay [9], 0.65 µM; in assay [10] it was 0.351 µM. For the same compound, the TGI is 7.06 µM in assay [1]; over 33.3 µM in [2]; 0.576 µM in [3]; over 33.3 µM in assay [4]; over 29.5 µM in [5]; over 33.3 µM in assay [6]. Further, the TGI in assay [7] was 0.832 µM; in assay [8], 0.272 µM; in assay [9], over 33.3 µM; in [10] it was over 33.3 µM.
As for `N#CC1=C(N)NC(=O)NC12Nc1ccccc1N2`, the GI50 in [1], in assay [2], in [3], in assay [4], in [5] and in assay [6] was over 100 µM each time. The GI50 in assay [7], in assay [8], in assay [9] and in [10] was over 100 µM throughout. Further, the TGI in assay [1], in [2], in [3], in assay [4], in assay [5] and in assay [6] was over 100 µM each time. The TGI in [7], in [8], in [9] and in [10] was over 100 µM in each case.
With `O=C[C@@H](CO)O[C@H](C=O)n1cnc2c(=O)[nH]cnc21`, the TGI in [1] was found to be 2150 µM; in assay [2], 2050 µM; in [3] it was 992 µM; in assay [4], 1450 µM; in assay [5], 1910 µM; in assay [6] it was 1360 µM. Further, the TGI in [7] turned out to be 1860 µM; in assay [8], 1410 µM; in assay [9] it was 1820 µM; in assay [10], 1380 µM.
With `O=C(O)c1ccc(SSc2ccc(C(=O)O)cn2)nc1`, the TGI in assay [1], in [2], in assay [3], in [4], in assay [5] and in [6] was over 100 µM throughout. The TGI in [7], in assay [8], in assay [9] and in assay [10] was over 100 µM each time.
Turning to `CC(SCc1ccccc1)C(=O)O` (stereo not given), the TGI in assay [1], in [2], in assay [3], in assay [4], in [5] and in assay [6] was over 100 µM throughout. The TGI in assay [7], in assay [8], in assay [9] and in assay [10] was over 100 µM each time.
Take `O=c1/c(=N\Nc2ccccc2)c2cccc3ccc4cccc1c4c32`: the TGI is over 100 µM in assay [1]; 88.6 µM in assay [2]; over 100 µM in [3]; over 100 µM in assay [4]; over 100 µM in assay [5]; over 100 µM in [6]. Further, the TGI in assay [7], in [8], in assay [9] and in assay [10] was over 100 µM in each case.
Regarding `CCn1c2ccccc2c2cc(C(=O)c3ccc(C)c4ccccc34)ccc21`, the GI50 in [1] is 0.282 µM; in assay [2], 0.729 µM; in [3], 0.249 µM; in [4], 0.435 µM; in assay [5], 0.263 µM; in assay [6] it was 0.635 µM. In addition, the GI50 is 0.276 µM in assay [7], 0.308 µM in [8], 0.62 µM in [9] and 2.44 µM in assay [10]. Further, the TGI in [1] was 1.15 µM; in [2], over 100 µM; in [3] it was 0.728 µM; in assay [4], over 100 µM; in [5], 0.729 µM; in assay [6], over 100 µM. Besides, the TGI was 1.42 µM in assay [7], 0.938 µM in assay [8], over 100 µM in assay [9] and over 100 µM in assay [10].
As for `COc1ccc(S(=O)(=O)N(C(C)=O)c2ccccc2/C=C/c2cc[n+]([O-])cc2)cc1`, the GI50 was 0.209 µM in [1]; 2.36 µM in assay [2]; 0.529 µM in assay [3]; 0.813 µM in [4]; 0.422 µM in assay [5]; 1.07 µM in assay [6]. In addition, the GI50 in [7] was 0.388 µM; in assay [8] it was 0.371 µM; in assay [9], 3.26 µM; in [10], 1.61 µM. The TGI in assay [1] was over 2.8 µM; in [2], over 10 µM; in assay [3], 2.3 µM; in assay [4], over 10 µM; in assay [5] it was over 10 µM; in assay [6], over 10 µM. Moreover, the TGI in assay [7] was 8.08 µM; in assay [8] it was 1.57 µM; in [9], over 10 µM; in [10] it was over 10 µM.
With `C=C(C)[C@@H]1CC[C@]2(C(=O)NS(=O)(=O)c3ccccc3)CC[C@]3(C)[C@H](CC[C@@H]4[C@@]5(C)CC[C@H](OC(=O)NS(=O)(=O)c6ccccc6)C(C)(C)[C@@H]5CC[C@]43C)[C@@H]12`, the GI50 in assay [1] was 1.65 µM; in assay [2] it was 2.73 µM; in [3], 1.54 µM; in assay [4], 3.18 µM; in assay [5], 2.03 µM; in assay [6], 2.46 µM. For the same compound, the GI50 was 1.99 µM in [7], 1.85 µM in assay [8], 3.02 µM in [9] and 2.34 µM in assay [10]. Further, the TGI in [1] is 4.69 µM; in assay [2], 9 µM; in assay [3], 3.08 µM; in [4] it was 13.8 µM; in [5] it was 11 µM; in assay [6] it was 5.56 µM. Further, the TGI in assay [7] is 6.89 µM; in [8], 3.62 µM; in assay [9], 11.8 µM; in [10] it was 15.7 µM.
